Experimental findings from ChEMBL document CHEMBL4049436, “Inhibitors of 15-Prostaglandin Dehydrogenase To Potentiate Tissue Repair” (J Med Chem, 2017) are described below.

For one data set, the system named is Liver. Briefly: (§1) Half life in mouse liver S9 fractions at 2 uM in presence of NADPH by LC-MS/MS analysis. It counts as ADME, tissue-based. The following applies: s9, 2 µM.
Data set [1] has as its system Mus musculus. Kind of data set: (§2) Cmax in CD1 mouse at 10 mg/kg, ip measured at 10 to 1440 mins post dose by LC-MS/MS analysis. Also noted: dose 10 mg/kg, route intraperitoneal. Type of data set: ADME, organism-based. To be noted: mouse, in vivo.
Data set [2] deals with Mus musculus. Briefly: (§3) AUC in CD1 mouse at 10 mg/kg, ip measured at 10 to 1440 mins post dose by LC-MS/MS analysis. The following applies: mouse, in vivo. It counts as ADME, organism-based.
Data set [3] can be described thus: Plasma concentration in CD1 mouse at 10 mg/kg, ip measured at 3 hrs post dose by LC-MS/MS analysis. It counts as ADME, organism-based.
Data set [4] is described as follows: as §1. It counts as ADME, tissue-based. The following applies: liver S9 fraction.
Data set [5] in a line: as §2. Also noted: dose 10 mg/kg, route intraperitoneal. To be noted: CD1, mouse, in vivo. Type of data set: ADME, organism-based.
Data set [6] in a line: as §3. Type of data set: ADME, organism-based. The following applies: CD1, mouse, in vivo.
A short description of data set [7]: Half life in human liver S9 fraction at 2 uM by LC-MS/MS analysis. Type of data set: ADME, tissue-based.
Data set [8] in a line: Plasma concentration in […] mouse at […], ip measured up to 3 hrs post dose by LC-MS/MS analysis. It counts as ADME, organism-based.

The term Cmax denotes the peak of the concentration-time curve. By AUC is commonly meant concentration integrated over time. The low end stands for less exposure, the high end for more exposure. With `CCCC[S+]([O-])c1sc2nc(-c3nccs3)cc(-c3ccc(OCCO)cc3)c2c1N` (stereo not drawn), the t1/2 in the data set with Liver was 1.38 h. For the same molecule, the Cmax in the data set on Mus musculus [1] was 13000 nM. Besides, the area under the curve (AUC) in the data set on Mus musculus [2] was 959 µg·min/mL. The same molecule returned a concentration at 3 h in data set [3] of 4200 nM.

Usually half-life stands for the time needed for the level to fall by half in the phase considered. Turning to `CCCC[S+]([O-])c1sc2nc(-c3cccs3)cc(-c3ccccc3)c2c1N` (stereo not drawn), the half-life at 2 µM in [4] was determined as 1.38 h. In data set [5], this molecule had a Cmax of 1500 nM. Besides, the exposure (AUC) in [6] is 1380 ng·h/mL.

With `COCC[S+]([O-])c1sc2nc(-c3nccs3)cc(-c3cnc(C)n3C)c2c1N` (stereo not drawn), in the data set on Liver, the t1/2 is over 4 h. In addition, the Cmax in the data set on Mus musculus [1] came out at 6200 nM. The AUC in the data set with Mus musculus [2] came to 116 µg·min/mL. Moreover, the concentration at 3 h in [3] was 60 nM.

Consider `CCCC[S@@+]([O-])c1sc2nc(-c3nccs3)cc(-c3cnc(C)n3C)c2c1N`, for which the half-life at 2 µM was 0.583 h in [4] and over 4 h in data set [7]. For the same molecule, the peak concentration (Cmax) in data set [5] was found to be 3100 nM. In addition, in data set [6], the exposure (AUC) was 783 ng·h/mL. Also, the concentration at 3 h in data set [3] and in data set [8] was under 10 nM in each case.

Turning to `CCCC[S+]([O-])c1sc2nc(-c3nccs3)cc(-c3ccc(CO)cc3)c2c1N` (stereo not drawn), in the data set with Liver, the t1/2 amounted to 0.217 h.

As for `COCCC[S+]([O-])c1sc2nc(-c3nccs3)cc(-c3cnc(C)n3C)c2c1N` (stereo not drawn), in the data set on Liver, the t1/2 is over 4 h.

Regarding `CCCC[S@@+]([O-])c1sc2nc(-c3cccs3)cc(-c3ccccc3)c2c1N`, the half-life at 2 µM in [4] was 0.217 h. This molecule came in with a maximum concentration (Cmax) in data set [5] of 1600 nM. The molecule further had an area under the curve (AUC) in data set [6] of 717 ng·h/mL.

As for `CCCC[S@+]([O-])c1sc2nc(-c3nccs3)cc(-c3cnc(C)n3C)c2c1N`, the half-life at 2 µM in data set [4] amounted to 4.82 h; in [7], 3.73 h.

Take `CCCC[S+]([O-])c1sc2nc(-c3nccs3)cc(-c3ccc(COC(=O)CN(C)C)cc3)c2c1N` (stereo not drawn): the t1/2 with Liver was 0.033 h.

On to `CCCC[S+]([O-])c1sc2nc(-c3nccs3)nc(-c3ccccc3)c2c1N` (racemic), for which, in the data set with Mus musculus [1], the Cmax came to 10600 nM. Further, the area under the curve (AUC) with Mus musculus [2] came out at 172 µg·min/mL. In addition, in data set [3], the concentration at 3 h worked out at 60 nM.
